Data: patent US10329542B2, “HBV RNAse H purification and enzyme inhibitors” (Saint Louis University, priority 2012, dated 2019)

Key:
[1] = target: T1, HBV genotype D RNAseH (HRHPL) (Hepatitis B virus genotype D subtype ayw, UniProt P03156, INS679M); test: Oligonucleotide-directed RNAseH cleavage assay, HBV genotype D; format: biochemical; settings: for Residual activity at 10 uM, Genotype D: ± standard deviation, 3 to 7 replicates; for Activity vs. HBV Biochemical vs. gtD: class by concentration giving inhibition (10, 20, 60 μM)
T1 construct: HRHPL contains HBV genotype D (Genbank V01460) polymerase residues 684-845; made in house; host or cells: E. coli BL21 codon+
T1 sequence (P03156 680-832, added parts left off, stated change not applied): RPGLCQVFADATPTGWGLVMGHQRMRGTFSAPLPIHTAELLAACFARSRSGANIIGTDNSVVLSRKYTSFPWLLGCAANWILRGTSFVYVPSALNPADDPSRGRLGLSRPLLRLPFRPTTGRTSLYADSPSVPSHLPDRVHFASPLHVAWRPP
Protocol: (§1) For the oligonucleotide-directed RNAseH cleavage assay (Gong et al., 2001), 6 μl protein extract (typical protein concentration 2.8 mg/ml) was mixed with 0.5 μg internally ^32P-labeled DRF+ RNA (nucleotides 2401-2605 of the duck HBV genome plus 60 nucleotides of flanking sequences from pBluescript) and 3 μg oligonucleotide D2507- or its corresponding negative control D2526+ on ice in 20 μl under the conditions in Table 1. Some reactions in FIG. 5 employed oligonucleotide D2543M-Sal or its D2453+ negative control as indicated. The reactions were incubated at 42° C. for 90 min. and terminated by addition of Laemmli protein loading buffer and boiling. The samples were resolved by 12% SDS-PAGE, the gels were stained with Coomassie blue to monitor protein loading, and labeled RNA was detected by autoradiography. Candidate inhibitors were dissolved in DMSO and added at the indicated concentrations during assembly of the reactions. Control reactions lacking the compounds contained DMSO as a vehicle control. The RNAseH autoradiograms were scanned and quantified with ImageJ.
(§2) Oligonucleotide-directed RNAseH cleavage assays (Gong et al., 2001) were performed as described (Tavis et al., 2013). Briefly, HBV RNAseH extracts were mixed with a 264 nt-long internally ^32P-labeled RNA plus an excess of a complementary DNA oligonucleotide or its inverse-complement as a negative control in a final concentration of 65 mM Tris pH 8.0, 190 mM NaCl, 5 mM MgCl2, 5 mM dTT, 0.05% NP40, and 6% glycerol. βTJ was dissolved in DMSO and added at the indicated concentrations; the final concentration of DMSO in all reactions was 1%. The reactions were incubated at 42° C. for 90 min. and terminated by addition of Laemmli protein electrophoresis buffer. The samples were resolved by SDS-PAGE, labeled RNA was detected by autoradiography, the autoradiograms were scanned, and the RNA cleavage products were quantified with ImageJ (National Institutes of Health). IC50 values were calculated by non-linear regression using GraphPad Prism (GraphPad Software, Inc.).

HBV genotype H RNAseH = test: Oligonucleotide-directed RNAseH cleavage assay, HBV genotype H; format: biochemical, Hepatitis B virus; settings: 10 μM; for Residual activity at 10 uM, Genotype H: ± standard deviation, 3 to 7 replicates
Protocol: as §1, with “ImageJ. The oligonucleotides were: D2526+([…]; SEQ ID NO:8), D2507-([…]; SEQ ID NO:9), D2453+([…]; SEQ ID NO:10), and D2543M-Sal ([…]; SEQ ID NO:11).” for “ImageJ.”
as §2

[2] = target: T2, chimeric HBV:HIV RNAseH HHC1 (Hepatitis B virus genotype D subtype ayw, UniProt P03156, DELINS787-795[…]/INS679M); test: Oligonucleotide-directed RNAseH cleavage assay, chimeric HHC1; format: biochemical; settings: 10 μM; ± standard deviation, 3 to 7 replicates
T2 construct: HHC1 is an HRHPL derivative; made in house; host or cells: E. coli BL21 codon+
T2 sequence (P03156 680-786, added parts left off, stated change not applied): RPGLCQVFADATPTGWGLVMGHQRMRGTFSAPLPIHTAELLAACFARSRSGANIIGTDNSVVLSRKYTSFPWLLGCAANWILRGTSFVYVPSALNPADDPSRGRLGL
From the text: pCMV-HBV-LE-(CMV-HBV) is an HBV over-length genomic expression vector containing 1.2 copies of the HBV(adw2) genome (Genbank X02763.1) downstream of the CMV promoter cloned into pBS (Promega). Surface protein expression from this vector is ablated by mutating the preS and S open reading frames. pCMV-HBV(genotype D) is an analogous HBV genomic expression construct and was a gift from Dr. Shuping Tong (Brown University). For bacterial expression, codon-optimized cDNA sequences for HRHPL (genotypes A, B, C, D, and H), and noncodon-optimized sequences for HHC1 and HHC2 were cloned by gene synthesis (Genscript) between the NcoI and EcoRI sites into pTrcHis2B (Invitrogen) with a C-terminal hexahistidine tag. HRHPL contains HBV genotype D (Genbank V01460) polymerase residues 684-845. HHC1 is an HRHPL derivative in which HBV polymerase residues 800-808 were replaced with HIV residues corresponding to the RNAseH helix D ([…]; SEQ ID NO:6). HHC2 is an HRHPL derivative in which HBV polymerase residues 800-845 were replaced with HIV residues corresponding to the RNAseH helix D to the C-terminus ([…]; SEQ ID NO:7). The human RNAseH1 gene (NP_002927.2) was cloned with an N-terminal hexahistidine-tag between the BamHI and XhoI sites of pRsetB (Invitrogen) by gene synthesis.
as §1, with “ImageJ. The oligonucleotides were: D2526+([…]; SEQ ID NO:8), D2507-([…]; SEQ ID NO:9), D2453+([…]; SEQ ID NO:10), and D2543M-Sal ([…]; SEQ ID NO:11).” for “ImageJ.”

HBV = HBV genomic replication assays (Table 2); format: cell-based, Hepatitis B virus; settings: class by active concentration
Protocol: Huh7 cells were maintained in Dulbecco's modified Eagle's medium with 10% fetal bovine serum at 37° C. in 5% CO2. Cells were seeded into 60 mm dishes and transfected at 70% confluency with 2.6 μg of plasmids using TransIT-LT1 (Mirus, Inc.). Test compounds were added the morning following transfection at 10 or 50 μM, and fresh medium containing the compounds was provided every 1-2 days. Four or five days post-transfection HBV cores were isolated by lysis of the cells in 10 mM Tris pH 7.5, 1 mM EDTA, 0.25% NP40, 50 mM NaCl, and 8% sucrose followed by sedimentation through a 30% sucrose cushion as described (Travis, et al., 1998). Viral DNAs were isolated from cytoplasmic core particle preparations by proteinase K digestion followed by phenol/chloroform extraction as described (Gong et al., 2001). Duplicate aliquots of the nucleic acids were treated with 2 U E. coli DNAse-free RNAseH (Invitrogen) at 37° C. for 30 min. or were mock treated. The nucleic acid samples were resolved by electrophoresis on 1.2% agarose gels and detected by Southern blotting with ^32P-labeled HBV DNA as a probe. […]

human RNAseH1 = target: T3, human RNAseH1 (Homo sapiens, UniProt O60930); test: Oligonucleotide-directed RNAseH assay, recombinant human RNAseH1; format: biochemical; settings: class by concentration giving inhibition (10, 20, 60 μM)
T3 construct: hexahistidine (N); made in house; host or cells: E. coli BL21 codon+
T3 sequence (O60930 1-286): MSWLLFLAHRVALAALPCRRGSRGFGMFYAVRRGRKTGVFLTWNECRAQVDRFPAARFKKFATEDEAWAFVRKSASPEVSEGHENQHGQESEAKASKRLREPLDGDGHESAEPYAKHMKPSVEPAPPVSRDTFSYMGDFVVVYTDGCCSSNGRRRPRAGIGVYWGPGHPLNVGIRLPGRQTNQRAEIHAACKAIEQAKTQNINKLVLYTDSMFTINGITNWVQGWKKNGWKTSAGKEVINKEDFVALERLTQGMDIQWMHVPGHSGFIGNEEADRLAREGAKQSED
Protocol: as §1, with “ImageJ. The oligonucleotides were: D2526+([…]; SEQ ID NO:8), D2507-([…]; SEQ ID NO:9), D2453+([…]; SEQ ID NO:10), and D2543M-Sal ([…]; SEQ ID NO:11).” for “ImageJ.”
Therefore, the inventors cloned the human RNAseH1 with an N-terminal hexahistidine tag, expressed it in E. coli, and purified the protein by nickel affinity chromatography. […] This enzyme was active in the oligonucleotide-directed and fluorescent RNAseH assays (FIG. 10B and data not shown). To determine how inhibition of human RNAseH1 compared to inhibition of the HBV RNAseH, the inventor titrated the RNAaseH1 enzyme to yield similar levels of activity as the HBV enzyme, and then the inventor directly compared the ability of compounds #8-12 to inhibit human RNAseH1 and HRHPL at 10 μM. […] Therefore, it is possible to inhibit the HBV RNAseH without inhibiting human RNAseH1.
as §2

SMILES | Residual activity at 10 uM, Genotype D [1] [Percent DMSO control] | Activity vs. HBV Biochemical vs. gtD [1] | Residual activity at 10 uM, Genotype H (HBV genotype H RNAseH) [Percent DMSO control] | Residual activity at 10 uM, HHC1 [2] [Percent DMSO control] | Activity vs. HBV Genomic Replication (HBV) | Activity vs. human RNAseH1 (human RNAseH1) | Inhibition of HBV genotype H RNAseH (HBV genotype H RNAseH; below threshold of irrelevant controls)
COc1ccc2ccccc2c1C=NNC(=O)c1ccc(O)c(O)c1 [Compound 13] | 52 ± 12 | − (− no inhibition at 60 μM) | 42 ± 26 | 65 ± 14 | − (− no activity at 60 μM) | – | –
Cc1cc(C2CCCCC2)n(O)c(=O)c1 [Compound 41, Ciclopirox, reference compound] | – | − (− no inhibition at 60 μM) | – | – | – | + (+ inhibition at 60 μM) | –
Cc1cc(C)c(OC(=O)c2ccc(Cl)cc2)c(=O)c(C)c1 [Compound 59] | – | − (− no inhibition at 60 μM) | – | – | – | + (+ inhibition at 60 μM) | –
CCOC(=O)c1sc(NC(=O)CSc2nnc[nH]2)c(C#N)c1C [Compound 28] | – | − (− no inhibition at 60 μM) | – | – | – | + (+ inhibition at 60 μM) | –
CC(C)=CCc1ccc(O)c(=O)cc1C(C)C [Compound 49, Nootkatin] | – | ++ (++ inhibition at 20 μM) | – | – | – | − (− no inhibition at 60 μM) | –
Cc1sc2nc(-c3ccc([N+](=O)[O-])cc3)[nH]c(=O)c2c1C [Compound 38] | 24 ± 1 | +++ (+++ inhibition at 10 μM) | 38 ± 25 | 32 ± 4 | − (− no activity at 60 μM) | – | –
O=C(Nc1ccc(O)c(=O)cc1)c1ccccc1 [Compound 52] | – | − (− no inhibition at 60 μM) | – | – | – | − (− no inhibition at 60 μM) | –
Cc1ccc(S(=O)(=O)Oc2cccccc2=O)cc1 [Compound 61] | – | − (− no inhibition at 60 μM) | – | – | – | ++ (++ inhibition at 20 μM) | –
CC(=O)NC(CCc1ccc(Cl)c(Cl)c1)c1cccc(O)c(=O)c1 (centres unmarked) [Compound 55] | – | + (+ inhibition at 60 μM) | – | – | – | + (+ inhibition at 60 μM) | –
O=Nc1ccc(O)c(=O)cc1 [Compound 50, 5-nitrosotropolone] | – | ++ (++ inhibition at 20 μM) | – | – | + (+, activity detectable at >10 μM) | − (− no inhibition at 60 μM) | –
CC(Cc1ccc(O)c(O)c1)C(C)Cc1ccc(O)c(O)c1 (centres unmarked) [Compound 2] | 54 ± 18 | − (− no inhibition at 60 μM) | 67 ± 20 | 35 ± 6 | − (− no activity at 60 μM) | – | –
O=C(O)c1ccc(-c2cccc(C=NNC(=O)c3cc(O)c(O)c(O)c3)c2)cc1 [Compound 15] | 47 ± 4 | − (− no inhibition at 60 μM) | 37 ± 23 | 68 ± 6 | − (− no activity at 60 μM) | – | –
CCOC(=O)c1cc2ccccc2n(O)c1=O [Compound 42] | – | − (− no inhibition at 60 μM) | – | – | – | + (+ inhibition at 60 μM) | –
NC(=O)c1c(N)sc2c1CCCCC2 [Compound 3] | 43 ± 14 | − (− no inhibition at 60 μM) | 68 ± 14 | 60 ± 19 | − (− no activity at 60 μM) | – | –
Cc1cc(C)n(O)c(=O)c1C#N [Compound 44] | – | − (− no inhibition at 60 μM) | – | – | – | − (− no inhibition at 60 μM) | –
O=c1cc2oc3cc(O)c(O)cc3c(-c3ccccn3)c-2cc1O [Compound 39] | 21 ± 2 | – | 26 ± 0 | 60 ± 24 | – | – | inhibited
